The subject of data set [1] is neutrophils. Kind of data set: Neutrophil elastase release (exocytosis) assay. Particulars: no inhibitor; read-out: agonist concentration representing half-maximal release of elastase. It is filed as cell-based.
Method: Microtiter assays for the detection of elastase released from purified neutrophils (1.1×10^5 per well in PBS) were performed in the absence or presence of an inhibitor in accordance with the invention or LY294002 on fibrinogen-coated plates [Mulligan, et al., Proc. Natl. Acad. Sci. U.S.A., 90:11523-11527 (1993)]. […] The samples were centrifuged and 90 μl of the supernatant was transferred to another plate containing 10 μl of methoxysuccinyl-alanylalanylprolylvalyl-p-nitroanilide (10 mM, Sigma). Absorbance at 410 nm was measured at one hour as described above. Results are expressed as the percentage elastase activity relative to the control (medium without inhibitor).
The subject of the next data set is human neutrophils. The experiment in a line: Neutrophil chemotaxis, Transwell assay. The format is cell-based. The following applies: no inhibitor, read-out: concentration of chemoattractant necessary to support half-maximal migration. The method, then: It is known that distinct signal transduction pathways are utilized by host-derived versus bacteria-produced chemoattractants [Heit, J. Cell Biol., 159:91-102 (2002)]. To determine whether specific chemotactic agents preferentially rely on PI3Kδ in order to promote directed cell migration, the effect of inhibiting PI3Kδ on the ability of neutrophils to undergo chemotaxis was examined using a Transwell™ assay system.
Neutrophil chemotaxis experiments were conducted as described [Roth et al., J. Immunol. Methods, 188:97-116 (1995)]. Briefly, purified human neutrophils were incubated with DMSO (0.3% v/v) or an inhibitor in accordance with the invention reconstituted in DMSO (0.3%) for 20 minutes at room temperature. Cells were added to bare filter inserts (Transwell™ 5 μm pore size; Corning Costar, Cambridge, Mass.), that were placed into wells containing chemoattractants or control medium of a Ultra low 24-well cluster plate, and incubated for 1 hour at 37° C. in a 5% CO2 humidified environment. The number of neutrophils that migrated into the bottom well was determined by FACScan (Becton Dickinson, San Jose, Calif.). Results were expressed as percent neutrophil migration relative to the control (medium without inhibitor).
Dose response curves were generated to determine the concentrations of each chemoattractant, both host and bacterial-derived, necessary to support half-maximal migration. […] Methods, 137:37-46 (1991)].

The test system of data set [2] is neutrophils. Kind of data set: Superoxide production by activated neutrophils (WST-1). Particulars: no inhibitor; read-out: agonist concentration representing half-maximal production of superoxide anions. The format is cell-based. For orientation: Formazan colour is commonly taken as a measure of viable cells.
The next data set concerns Listeria monocytogenes. The experiment in a line: Clearance of systemic Listeria monocytogenes infection. The format is in vivo. Particulars: for Log colony count/gm spleen tissue in dexamethasone group (2 mg/kg): 72 hours post-infection, Lewis rats. The method, then:
Two separate bacterial clearance studies were conducted. […] Colony counts (CFU) per gram of spleen tissues were determined at necropsy, 72 hours post-infection and expressed as the log of the colony count (e.g., 100000 CFU=log 5) per gram of tissue. Colony count measurements provide an indication of the extent of phagocytosis of bacteria by splenic neutrophils and macrophages.

“Also recorded” adds a separate entry of the source.

On to `CCCCC/C=C\C[C@@H](O)/C=C/C=C/C=C\[C@@H](O)CCCC(=O)O` [LTB4, leukotriene B4], for which the EC50 was 2 nM in the data set with neutrophils [1], 0.25 nM with human neutrophils and 2 nM in the data set with neutrophils [2].

For the molecule `C[C@@H]1C[C@H]2[C@@H]3CCC4=CC(=O)C=C[C@]4(C)[C@@]3(F)[C@@H](O)C[C@]2(C)[C@@]1(O)C(=O)CO` [dexamethasone], the “Log colony count/gm spleen tissue in dexamethasone group (2 mg/kg)” value is “count, >5 log colony count/gm spleen tis” with Listeria monocytogenes (Clearance Experiment 1, 2 mg/kg BID PO) and “hours, >10 log colony count/gm spleen tis” with Listeria monocytogenes (Clearance Experiment 2, 2 mg/kg). The “lethality / condition of animals at 72 hours” value in the data set with Listeria monocytogenes (second experiment, dexamethasone 2 mg/kg) is “lethality was observed; also recorded: Moribund at 72”.

Consider interleukin 8 [IL-8], for which, in the data set with human neutrophils, the EC50 was 0.35 nM.

B1: complement factor C5a (protein, UniProt P01031 678-751, looked up)
C5a anaphylatoxin: TLQKKIEEIAAKYKHSVVKKCCYDGACVNNDETCEQRAARISLGPRCIKAFTECCVVASQLRANISHKDMQLGR
modifications: C5a anaphylatoxin
notes: host-derived chemoattractant
In the case of B1, the EC50 with human neutrophils is 0.37 nM.

Source of the values: patent US20050043239A1, “Methods of inhibiting immune responses stimulated by an endogenous factor” (priority 2003, published 2005).
